From US20250041291A1, “COMPOSITIONS AND METHODS FOR TREATING CANCER” (Emmaus Life Sciences, Inc, priority 2021, published 2025)

How the values were obtained:
Format in all cases: cell-based
[1] = test system: human adipose stromal cells (ASC); experiment: cell number (proliferation) of human adipose stromal cells after 24 h treatment; conditions: 25% FBS; for ASC growth / ASC number as compared to vehicle control: at 100 μM
Method: (§1) MOLM-13 cells were cultured in RPMI1640, red phenol free, in presence of 2, 10 and 25% of fetal bovine serum (FBS). 25% FBS simulates the level of serum present in the blood. Adipose stromal cells (ASC) and human fibroblast primary cells were used as reference controls. Compound A, at various concentrations (0.05 to 100 μM), was added to the cells and incubated for 24 h, with or without the co-treatment with olaparib (a PARP inhibitor, Ola). Olaparib or ibrutinib (a BTK inhibitor) alone was also tested with these cells.

[2] = test system: human adipose stromal cells (ASC); experiment: caspase 3/7 activity (apoptosis) in human adipose stromal cells; conditions: 25% FBS, 24 h; for activity of caspase 3 or 7 / induction of apoptosis in ASC: all tested concentrations (up to 100 μM)
Method: as §1

[3] = test system: human fibroblast primary cells; experiment: cell growth (proliferation) of human fibroblast primary cells; conditions: at 100 μM, but not at lower concentrations; 25% FBS; 24 h
Method: as §1

[4] = test system: human fibroblast primary cells; experiment: caspase 3/7 activity (apoptosis) in human fibroblast primary cells; conditions: 25% FBS, 24 h
Method: as §1

[5] = test system: MOLM-13 cells (adult acute myeloid leukemia) expressing the FLT3-ITD mutation; experiment: cell number (proliferation) of MOLM-13 cells expressing FLT3-ITD
Method: (§2) In this example, MOLM-13 cells (adult acute myeloid leukemia) expressing the FLT3-ITD mutation were used to test Compound A to decrease their cell proliferation and increase their apoptosis level. Midostaurin (mido), an inhibitor of FLT3, was used as a positive control.
as §1

[6] = test system: MOLM-13 cells (adult acute myeloid leukemia) expressing the FLT3-ITD mutation; experiment: caspase 3/7 activity (apoptosis) in MOLM-13 cells expressing FLT3-ITD
Method: as §2, §1

[7] = test system: MWCL-1 cells (adult Waldenström macroglobulinemia cells) expressing the Myd88 L265P mutation; experiment: cell number (proliferation) of MWCL-1 cells expressing Myd88 L265P
Method: (§3) In this study, MWCL-1 cells (adult Waldenström macroglobulinemia cells) expressing the Myd88 L265P mutation were used to test different drugs for their effects on cell proliferation and apoptosis. Midostaurin (an inhibitor of FLT3, mido) was used as reference control.
(§4) MWCL-1 cells were cultured in RPMI1640, in presence of 2, 10 and 25% of fetal bovine serum (FBS). The number of MWCL-1 cells decreased only at higher Compound A concentration (50 and 100 μM), during a 24 h treatment, at 2, 10 and 25% FBS (FIGS. 6A, 7A and 8A). Also, the levels of caspase 3/7 activity in the cells were elevated only at the higher concentrations (50 and 100 μM, FIGS. 6B, 7B and 8B), which is consistent with the decreased cell growth.

[8] = test system: MWCL-1 cells (adult Waldenström macroglobulinemia cells) expressing the Myd88 L265P mutation; experiment: caspase 3/7 activity (apoptosis) in MWCL-1 cells expressing Myd88 L265P
Method: as §3, §4

[9] = 1 to 100 μM, dose-dependent, 2% or 10% FBS, 24 h
[10] = alone, at 10 μM, 2, 10 or 25% FBS

Row | Molecule | cell number increase of human ASC as compared to vehicle control ([1]; at 50 and 100 μM but not at lower concentrations) | activity of caspase 3 or 7 / induction of apoptosis in ASC [2] | cell growth of human fibroblast primary cells [3] | apoptosis of the fibroblasts ([4]; tested concentrations) | numbers of MOLM-13 cells [5, 9] | response of MOLM-13 cells to anti-cancer effects (proliferation and apoptosis) ([5]; 25% FBS, 24 h) | efficiency compared with the other compound (cell numbers and caspase 3/7 activity, MOLM-13) ([5]; at higher doses) | level of caspase 3/7 activity in MOLM-13 cells [6, 9] | efficiency compared with midostaurin (MWCL-1 cell number and caspase 3/7 activity) ([7]; both at 100 μM, 25% FBS) | number of MWCL-1 cells ([7]; only at 50 and 100 μM, 24 h treatment, 2, 10 and 25% FBS) | levels of caspase 3/7 activity in MWCL-1 cells ([8]; only at 50 and 100 μM, 24 h, 2, 10 and 25% FBS) | ASC growth / ASC number as compared to vehicle control [1] | apoptosis (caspase 3/7 activities) of ASC ([2]; at 100 μM, but not at lower concentrations) | caspase 3/7 activities in the fibroblasts ([4]; at 100 μM) | numbers of MOLM-13 cells [5, 10] | apoptotic levels of MOLM-13 cells [6, 10] | caspase 3/7 activity in MWCL-1 cells ([8]; at 50, 100 μM, 25% FBS)
1 | CN1CCN(C(=O)CCCc2cn(-c3ccccc3)c(NC(=O)c3cccc(-c4cnn(C)c4)c3)n2)CC1 [Compound A, 3-(1-methyl-1H-pyrazol-4-yl)-N-(4-(4-(4-methylpiperazin-1-yl)-4-oxobutyl)-1-phenyl-1H-imidazol-2-yl)benzamide] | slower cell number increase | did not change the activity of caspase 3 or 7 | slower cell growth | No apoptosis | decreased | responded to the anti-cancer effects | more efficient at higher doses than midostaurin | elevated | more efficient than midostaurin | decreased | elevated | – | – | – | – | – | –
2 | C=CC(=O)N1CCC[C@@H](n2nc(-c3ccc(Oc4ccccc4)cc3)c3c(N)ncnc32)C1 [ibrutinib, 1-[(3R)-3-[4-Amino-3-(4-phenoxyphenyl)-1H-pyrazolo[3,4-d]pyrimidin-1-yl]piperidin-1-yl]prop-2-en-1-one] | – | – | – | – | – | – | – | – | – | – | – | decrease of ASC number | induced apoptosis | increased the caspase 3/7 activities | – | – | –
3 | 4-[(3-[(4-cyclopropylcarbonyl)piperazin-1-yl]carbonyl)-4-fluorophenyl]methyl(2H)phthalazin-1-one [olaparib, reference compound] | – | did not induce apoptosis | – | – | – | – | – | – | – | – | – | inhibited ASC growth | – | – | did not decrease | increased the apoptotic levels | increased the caspase 3/7 activity
